Source: patent US20240067677A1, “Interference Peptides As Inhibitors Of Interactions Related To Ampar Endocytosis” (priority 2020, published 2024)
Where a chain is given by its changes, count along the chain named. Entries after “also recorded” stand apart in the source; their conditions may differ. Square brackets hold non-standard residues; d marks the D form. Ends that are not written are not given here. pY = N[C@@H](Cc1ccc(OP(=O)(O)O)cc1)C(=O)O

Assays:
BRAG2-GluA2 complex = target: T1, BRAG2-GluA2 complex (Homo sapiens, UniProt Q6DN90, E620K); experiment: BRAG2-GluA2 pulldown with GSH Sepharose-coupled GST-GluA2 (SDS-PAGE); assay type: binding
T1 construct: GST-GluA2: E. coli BL21
T1 sequence (Q6DN90 with tags, fused parts or gaps E620K): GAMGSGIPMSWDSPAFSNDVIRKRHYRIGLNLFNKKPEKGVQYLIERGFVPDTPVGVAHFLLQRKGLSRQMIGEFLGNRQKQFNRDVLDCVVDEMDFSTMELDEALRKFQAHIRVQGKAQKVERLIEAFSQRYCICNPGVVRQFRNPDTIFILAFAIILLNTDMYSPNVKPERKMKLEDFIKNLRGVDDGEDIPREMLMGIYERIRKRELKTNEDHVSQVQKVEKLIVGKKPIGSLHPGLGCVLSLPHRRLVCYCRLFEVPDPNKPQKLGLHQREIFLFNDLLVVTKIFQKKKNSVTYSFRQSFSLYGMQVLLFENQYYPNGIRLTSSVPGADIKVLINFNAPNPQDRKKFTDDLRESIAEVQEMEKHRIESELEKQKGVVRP
Method: A. SDS-PAGE gel of the species pulled down with GSH Sepharose-coupled GST-GluA2. On the first lane, only BRAG2 was present in the solution containing the beads. On lanes 2-4 the BRAG2 solution also contained 1 mM of different peptides. B. BRAG2 band intensities from A. normalized to the GS T-GluA2 band intensities.
Samples containing GST-GluA2 (150 μg) and BRAG2 (60 μg) were bound to Sepharose glutathione beads (20 μl). Prior to binding, the beads were washed thoroughly with interaction buffer (25 mM HEPES, 150 mM NaCl, 1 mM MgCl2, 1% Triton™ X-100, 1 mM DTT, pH=7.5). Triton™ X-100 was used to avoid nonspecific binding and to minimize the risk of protein precipitation. In a subsequent step, 3Y at different concentrations was added to the samples (1000 μM, 100 μM, 10 μM, 1 μM, 0.1 μM). A 2.5 mM solution (0.1 M PBS pH=7.4) was obtained. After incubating the samples for 90 minutes at 4 ° C. with stirring, the beads were washed with a buffer containing less Triton X-100 (25 mM HEPES, 150 mM NaCl, 1 mM MgCl2, 0.1% Triton™ X-100.1 mM DTT, pH=7.5). The species which remained trapped by the beads were analyzed by SDS-PAGE (FIG. 16).

[1] = target: T2, GST-GluA2-STEP32 C/S complex (Homo sapiens, UniProt P54829, C496S); experiment: GST-GluA2-STEP32 pulldown (SDS-PAGE / western blot); assay type: binding
T2 construct: made in house; host or cells: STEP32 C/S: E. coli BL21(DE3); GST-GluA2: E. coli BL21
T2 sequence (P54829 282-563 C496S): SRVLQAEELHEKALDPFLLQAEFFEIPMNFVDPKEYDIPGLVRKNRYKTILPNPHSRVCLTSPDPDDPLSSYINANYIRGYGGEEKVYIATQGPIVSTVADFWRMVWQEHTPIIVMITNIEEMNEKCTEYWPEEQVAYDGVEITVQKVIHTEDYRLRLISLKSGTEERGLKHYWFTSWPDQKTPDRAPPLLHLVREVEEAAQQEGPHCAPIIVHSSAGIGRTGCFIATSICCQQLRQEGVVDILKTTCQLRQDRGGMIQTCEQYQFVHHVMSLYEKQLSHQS
Method: Prior to binding and after contacting the beads with phosphorylated GST-GluA2, the beads were washed thoroughly with interaction buffer (25 mM HEPES, 150 mM NaCl, 1 mM MgCl2, 1% Triton™ X-100, 1 mM DTT, pH=7,5). Triton™ X-100 was used to avoid nonspecific binding and to minimize the risk of precipitation for any of the proteins. […] Beads were washed twice with wash buffer to remove excess STEP32 C/S. Results were analyzed using SDS-PAGE (FIG. 2A).

[2] = test system: scopolamine (0.7 mg/kg)-treated rats; experiment: Y-maze test, scopolamine-induced cognitive impairment; conditions: peptide 15 μM; Sco 0.7 mg/kg
Method: (§1) At the beginning of the experiment, there have been selected 30 adult male rats (Cantacuzino Institute™, Romania) having an average weight of 350 g (±10 g) and four months old. The animals were housed in the animal unit under controlled conditions of light (a 12-h cycle starting at 07:00 h) and temperature (22° C.). Food and water were provided ad libitum throughout the experiment. Rats were randomly divided into 6 groups (n=5 animals/group) as follows: Control group (sham-operated), Scopolamine (Sco) group (sham-operated, Sco: 0,7 mg/kg b.w., i.p., Sigma-Aldrich™, Darmstadt, Germany), and groups treated with TAT-p3Y, TAT-3Y, TAT-p3Ysh3, and TAT-pfin4 (15pIVI, GenScript™) received scopolamine. […] Scopolamine hydrobromide (Sco, 0.7 mg/kg) was administered 30 min before behavioral in vivo approaches.
(§2) All surgical procedures were conducted under aseptic conditions, under sodium pentobarbital (50 mg/kg b.w., i.p., Sigma-Aldrich™, Darmstadt, Germany) anesthesia. Rats were mounted in the stereotaxic apparatus with the nose oriented 11° below horizontal zero plane. Two plastic guide cannulas (Portex™, 0.9 mm outer diameter) were bilaterally implanted stereotaxically in the dorsal hippocampus according to the following coordinates: A/P=3.6 mm, M/L=3.1 mm and D/V=2.4 mm. The cannulas were positioned with dental cement (Adhesor™ SpofaDental™) and secured by three stainless steel screw implanted into the skull. After surgery, the rats were isolated in separate cages and protected with a large spectrum antibiotic. Animals were given two weeks to recover from surgery and were handled daily during this period.
Spontaneous alternation behavior was evaluated in a single-session Y-maze, as previously described by Jackson Postu et al [63]. In the present study, the Y-maze used was built of Plexiglas having the following dimensions: 25 cm high, 35 cm long, 10 cm wide for each arm, and a central area in an equilateral triangular shape. […] The percentage of the involuntary alternation was determined according to the formula:

[3] = test system: scopolamine (0.7 mg/kg)-treated rats; experiment: Forced swimming test
Method: At the beginning of the experiment, there have been selected 30 adult male rats (Cantacuzino Institute™, Romania) having an average weight of 350 g (±10 g) and four months old. The animals were housed in the animal unit under controlled conditions of light (a 12-h cycle starting at 07:00 h) and temperature (22° C.). Food and water were provided ad libitum throughout the experiment. Rats were randomly divided into 6 groups (n=5 animals/group) as follows: Control group (sham-operated), Scopolamine (Sco) group (sham-operated, Sco: 0,7 mg/kg b.w., i.p., Sigma-Aldrich™, Darmstadt, Germany), and groups treated with TAT-p3Y, TAT-3Y, TAT-p3Ysh3, and TAT-pfin4 (15pIVI, GenScript™) received scopolamine. The doses of the peptides were chosen according to a previous report [60]. Scopolamine hydrobromide (Sco, 0.7 mg/kg) was administered 30 min before behavioral in vivo approaches. […]
The forced swimming test (F.S.T.) is used for assessing depressive-like responses [66]. The depressive-like response was assessed, basically using the same method described by Campos
et al. [67], but with modifications. […] During the test session, the following behavioral responses were recorded: (i) immobility (time spent floating with the minimal movements to keep the head above the water); and (ii) swimming (time spent with active swimming movements). • Statistical Analyses

[4] = test system: scopolamine (0.7 mg/kg)-treated rats; experiment: Radial arm-maze test, scopolamine-induced cognitive impairment; conditions: for number of working memory errors vs. scopolamine-alone treated rats: peptide 15 μM into dorsal hippocampus; for number of working memory errors vs. scopolamine-alone treated rats / number of reference memory errors vs. scopolamine-alone treated rats: Sco 0.7 mg/kg; for number of reference memory errors vs. scopolamine-alone treated rats: peptide 15 μM
Method: as §1, §2
As described before by Olton and Samuelson and Postu et al [63], using a radial arm maze test (RAM), the spatial memory was determined for one week.
The maze comprised eight arms marked from 1 to 8 (48 cm×12 cm), with a radial extension of 32 cm in diameter from the central area, and it had 50 mg food pellets at the end of arms 1, 2, 4, 5, and 7. Four days of habituation sessions were performed. Rats were instructed to move to the end of the arms and to eat the bait during 5 min sessions. After habituation, only one trial per day was granted to all rats. For working and reference memory tasks, each rat was individually placed in the center of the maze.

[5] = test system: scopolamine (0.7 mg/kg)-treated rats; experiment: Elevated plus-maze test; conditions: for number of entries in the open arms vs. Sco-alone treated rats / percentage of the open arms time vs. scopolamine-alone treated rats: peptide 15 μM, Sco 0.7 mg/kg
Method: At the beginning of the experiment, there have been selected 30 adult male rats (Cantacuzino Institute™, Romania) having an average weight of 350 g (±10 g) and four months old. The animals were housed in the animal unit under controlled conditions of light (a 12-h cycle starting at 07:00 h) and temperature (22° C.). Food and water were provided ad libitum throughout the experiment. […] Scopolamine hydrobromide (Sco, 0.7 mg/kg) was administered 30 min before behavioral in vivo approaches.
as §2
Behavior in the elevated plus-maze test (E.P.M.) is utilized to assess exploration, anxiety and motor behavior. Each rat was placed in the center of the maze facing one closed arm. […] The percentages of time spent in the open arms were calculated using the formula:
(time spent in the open arms/time spent in all arms)×100. • Forced Swimming Test

STEP32 WT = target: T3, STEP32 WT (Homo sapiens, UniProt P54829); experiment: In vitro dephosphorylation of pY876 of full length GluA2 by STEP32 WT (western blot)
T3 sequence (P54829 282-563): T2 sequence (P54829 282-563 C496S) with S215C
From the text: GluA2-FL phosphorylated at Y876 site was immunoprecipitated from HEK293T cells overexpressing GluA2 and vSrc using anti-GluA2 antibodies and then submitted to in vitro dephosphorylation by purified STEP32 WT, in presence versus absence of TAT-phosphopeptides: TAT-p3Y, TAT-p3Y-sh3 and TAT-p-fin4. The dephosphorylation of the pY876 site of GluA2 FL was detected by western blotting using anti-pY876 antibodies and anti-GluA2 antibodies.
The results represent mean±SEM of three independent experiments.
Therefore, HEK293 cells were transfected with a pCMV-SPORT6-GRIA2 mammalian expression vector containing the cDNA of full length GluA2 (GluA2-FL). […] A sample consisting of immunoprecipitated GluA2 FL untreated with either STEP32 or peptides was also included into the study, as a control.

EGYNVY (Interference peptide capable of inhibiting the formation/disrupting the STEP-GluA2 complex or the GluA2-BRAG2 complex) [3Y-sh3, (uncoupled) novel 3Y-sh3 peptide, non-phosphorylated hexapeptide]
effect on the GST-GluA2-BRAG2 complex (BRAG2-GluA2 complex; 1 mM peptide (FIG. 17)): significant disrupting effect

(TAT-)p3Y: p3Y N-terminally fused to the TAT cell-penetrating sequence GRKKRRQRRRPQ [reference compound]
inhibition of formation of the GST-GluA2-STEP32 C/S complex [1]: significantly inhibit the interaction | spontaneous alternation percentage / working memory vs. scopolamine alone [2]: successfully countered the effect of scopolamine on working-memory | p, Sco vs. peptide, immobility time ([3]; 15 μM, Tukey's post hoc, n=5, FIG. 12): < 0.0001 | immobility time ([3]; peptide 15 μM, Sco 0.7 mg/kg): significant decline of the immobility time | p, Sco vs. peptide, number of reference memory errors ([4]; 15 μM, Tukey's post hoc, n=5, FIG. 10): < 0.01 | number of working memory errors vs. scopolamine-alone treated rats [4]: significant reduction in the number of working memory errors

ATYKEGYNVYG (not fully specified (residue 10)) [3Y, reference compound]
p, Sco vs. peptide, open arms time % ([5]; 15 μM, Tukey's post hoc, n=5, FIG. 13): < 0.001 | disruption of the BRAG2-GluA2 complex (BRAG2-GluA2 complex; 3Y in the range of concentrations 10 μM-1 mM): successfully disrupts the BRAG2-GluA2 complex

(TAT-)p3Y-sh3: p3Ysh-3 (EGYNVpY) N-terminally fused to the TAT cell-penetrating sequence (GRKKRRQRRRPQEGYNV[pY])
inhibition of formation of the GST-GluA2-STEP32 C/S complex [1]: significantly inhibit the interaction | spontaneous alternation percentage / working memory vs. scopolamine alone [2]: successfully countered the effect of scopolamine on working-memory | number of entries in the open arms vs. Sco-alone treated rats [5]: high number of entries in the open arms | percentage of the open arms time vs. scopolamine-alone treated rats [5]: high percentage of the open arms time | number of working memory errors vs. scopolamine-alone treated rats [4]: significant reduction in the number of working memory errors | number of reference memory errors vs. scopolamine-alone treated rats [4]: significant reduction in the number of reference memory errors

(TAT-)p-fin 4: p-fin4 (EGYNVpYE) N-terminally fused to the TAT cell-penetrating sequence (GRKKRRQRRRPQEGYNV[pY]E)
inhibition of pY876 GluA2-FL dephosphorylation by STEP32 WT (STEP32 WT; 0.1 mM and 1 mM peptide): highest inhibition of GluA2 dephosphorylation | P, no peptide sample vs. peptide + STEP32 WT sample, pY876 band intensity (STEP32 WT; 1 mM peptide, unpaired t-test with Welch's correction): < 0.05 | inhibition of formation of the GST-GluA2-STEP32 C/S complex [1]: strongest inhibitory effect; also recorded: significantly inhibit the interaction | spontaneous alternation percentage / working memory vs. scopolamine alone [2]: successfully countered the effect of scopolamine on working-memory | number of entries in the open arms vs. Sco-alone treated rats [5]: high number of entries in the open arms | percentage of the open arms time vs. scopolamine-alone treated rats [5]: high percentage of the open arms time | number of working memory errors vs. scopolamine-alone treated rats [4]: significant reduction in the number of working memory errors | number of reference memory errors vs. scopolamine-alone treated rats [4]: significant reduction in the number of reference memory errors
